Read-outs that look alike come from different tables or passages of the source.

Series [1] relates to Gi1 heterotrimer with NPY-bound Y1R. Kind of series: GTP turnover assay. It is filed as biochemical, human. The protocol:
GTP turnover assay was performed using GTPase-Glo assay kit (Promega)[22]. […] NPY-bound Y1R (4 μM) was mixed with 1 μM Gi1 heterotrimer (containing Gαi produced from E. coli or Sf9 cells) in an assay buffer consisting of 20 mM HEPES pH 8.0, 150 mM NaCl, 0.03% DDM, 0.003% CHS, 100 μM TCEP, 5 μM GDP, and 2.5 μM GTP. After incubation for 3 h, reconstituted GTPase-Glo reagent was added to the sample and incubated for 30 min at room temperature. Then, detection reagent was mixed and incubated for 10 min at room temperature. Luminescence was measured using a FlexStation 3 multi-mode microplate reader (Molecular Devices) and data were analyzed by GraphPad Prism 9.2.0.

The test system of series [2] is wild-type Y1R / Gi1. The series is described as follows: BRET Gi1 recruitment assay, wild-type Y1R. Conditions: result in words. Type of series: cell-based, human. (Bioluminescence resonance energy transfer reports proximity on the nanometre scale.)
Procedure: Forty-eight hours of post-transfection, cells were detached with PBS supplemented with 20 mM EDTA and evenly spread into white 96-well microplates (SPL). […] All BRET data were collected using a Mithras LB940 instrument (Berthold), and graphs were plotted using GraphPad Prism 9.2.0.
each sample represent the mean and S.E.M. (standard error of mean) of n=six independent experiments, respectively. Each circle represents an individual data point from the experiment.
Series [3] relates to Y1R. Conditions: cited from earlier work.
The mark [4] stands for this setting: alanine mutants of NPY, ref [10],[26].

Regarding “Gi1 (Sf9): purified Gi1 heterotrimer containing Gαi1 produced from Sf9 insect cells”, the “reduced luminescence signal (GTP hydrolytic activity)” value in series [1] (GTPase-Glo, 1 μM Gi1, 4 μM NPY-bound Y1R, 3 h, three independent experiments) is listed as 95.1%.

Gi (sf9): the GTP turnover in series [1] (1st, Buffer 7216.3) was determined as 2592.3; in series [1] (2nd, Buffer 7401.3), 2856.7; in series [1] (3rd, Buffer 7365.4) it was 2743.4.

As for “NPY-COOH: carboxyl-NPY (NPY-COOH), non-amidated NPY”, in series [2], the Gi1 recruitment result was “does not induce recruitment of Gi1”.

Regarding R33A: R33A mutation of NPY, the Y1R binding entry in series [3] (setting [4]) is “most severe defects in Y1R binding”.

On to R35A: R35A mutation of NPY, for which, in series [3] (setting [4]), the Y1R binding entry was “most severe defects in Y1R binding”.

Consider Y1R, for which the GTP turnover in series [1] (1st, Buffer 7216.3) amounted to 7542.9; in series [1] (2nd, Buffer 7401.3), 7352.2; in series [1] (3rd, Buffer 7365.4), 7960.2.

For the substance Y36A: Y36A mutation of NPY, the Y1R binding result in series [3] (setting [4]) is “loss of binding to Y1R”.

As to Y36F: Y36F mutation of NPY, in series [3] (NPY mutant, ref [26]), the Y1R binding entry is given as “relatively mild effect on Y1R binding”.

Values taken from PMC8844075 (Nature Communications, 2022).
